Like-named read-outs stand apart in the source and are kept apart here.
Tests used:
[1] = test system: Key Broadleaf Weed and Crop Species; test: Post-emergent Test II herbicidal activity (Table 5); format: in vivo; conditions: post-emergence, 336 h, 14 days after application; for pest or weed control at 70 g/ha: application rate 70 g ai/ha; for pest or weed control at 140 g/ha: application rate 140 g ai/ha
How it was run: (§1)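 Greenhouse post-emergent assay: seedlings (first/second true leaf) in Metro-Mix 360 were sprayed at 187 L/ha at a top rate plus twofold dilutions down to 1/16×; solvent-blank controls were included. Percent visual injury was read at 14 d.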

[2] = test system: Key Grass and Sedge Weeds as well as Grass Crops; test: Post-emergent Test II herbicidal activity (Table 6); format: in vivo; conditions: post-emergence, 336 h; for pest or weed control at 70 g/ha: 70 g ai/ha; for pest or weed control at 140 g/ha: 140 g ai/ha
How it was run: as §1

[3] = ABUTH: velvetleaf (Abutilon theophrasti), read-out: Visual Growth Reduction (%) 14 Days After Application, ABUTH
[4] = AMARE: redroot pigweed (Amaranthus retroflexus), read-out: Visual Growth Reduction (%) 14 Days After Application, AMARE
[5] = BRSNN: oilseed-rape, canola (Brassica napus), read-out: Visual Growth Reduction (%) 14 Days After Application, BRSNN
[6] = CHEAL: lambsquarters (Chenopodium album), read-out: Visual Growth Reduction (%) 14 Days After Application, CHEAL
[7] = EPHHL: wild poinsettia (Euphorbia heterophylla), read-out: Visual Growth Reduction (%) 14 Days After Application, EPHHL
[8] = HELAN: sunflower (Helianthus annuus), read-out: Visual Growth Reduction (%) 14 Days After Application, HELAN
[9] = VIOTR: wild pansy (Viola tricolor), read-out: Visual Growth Reduction (%) 14 Days After Application, VIOTR
[10] = CYPES: yellow nutsedge (Cyperus esculentus), read-out: Visual Growth Reduction (%) 14 Days After Application, CYPES
[11] = DIGSA: crabgrass (Digitaria sanguinalis), read-out: Visual Growth Reduction (%) 14 Days After Application, DIGSA
[12] = ECHCG: barnyardgrass (Echinochloa crus-galli), read-out: Visual Growth Reduction (%) 14 Days After Application, ECHCG
[13] = ORYSA: rice (Oryza sativa), crop, read-out: Visual Growth Reduction (%) 14 Days After Application, ORYSA
[14] = SETFA: giant foxtail (Setaria faberi), read-out: Visual Growth Reduction (%) 14 Days After Application, SETFA
[15] = SORVU: grain sorghum (Sorghum vulgare), read-out: Visual Growth Reduction (%) 14 Days After Application, SORVU
[16] = TRZSS (wheat, Triticum aestivum), crop, read-out: Visual Growth Reduction (%) 14 Days After Application, TRZSS
[17] = ZEAMX: maize, corn (Zea mays), crop, read-out: Visual Growth Reduction (%) 14 Days After Application, ZEAMX

COC(=O)c1nc(-c2ccc(I)cc2)c(F)c(N)c1Cl [Compound 118, Methyl 4-amino-6-(4-iodophenyl)-3-chloro-5-fluoropicolinate]
pest or weed control at 70 g/ha [1, 3]: 95 to 100% | pest or weed control at 140 g/ha [1, 3]: 95 to 100% | pest or weed control at 70 g/ha [1, 4]: 95 to 100% | pest or weed control at 140 g/ha [1, 4]: 95 to 100% | pest or weed control at 70 g/ha [1, 5]: 95 to 100% | pest or weed control at 140 g/ha [1, 5]: 95 to 100% | pest or weed control at 70 g/ha [1, 6]: 95 to 100% | pest or weed control at 140 g/ha [1, 6]: 95 to 100% | pest or weed control at 70 g/ha [1, 7]: 95 to 100% | pest or weed control at 140 g/ha [1, 7]: 95 to 100% | pest or weed control at 70 g/ha [1, 8]: 95 to 100% | pest or weed control at 140 g/ha [1, 8]: 95 to 100% | pest or weed control at 70 g/ha [1, 9]: 85 to 94% | pest or weed control at 140 g/ha [1, 9]: 95 to 100% | pest or weed control at 70 g/ha [2, 10]: 95 to 100% | pest or weed control at 140 g/ha [2, 10]: 95 to 100% | pest or weed control at 70 g/ha [2, 11]: 75 to 84% | pest or weed control at 140 g/ha [2, 11]: 85 to 94% | pest or weed control at 70 g/ha [2, 12]: 95 to 100% | pest or weed control at 140 g/ha [2, 12]: 95 to 100% | pest or weed control at 70 g/ha [2, 13]: 30 to 44% | pest or weed control at 140 g/ha [2, 13]: 45 to 59% | pest or weed control at 70 g/ha [2, 14]: 45 to 59% | pest or weed control at 140 g/ha [2, 14]: 60 to 74% | pest or weed control at 70 g/ha [2, 15]: 95 to 100% | pest or weed control at 140 g/ha [2, 15]: 95 to 100% | pest or weed control at 70 g/ha [2, 16]: 75 to 84% | pest or weed control at 140 g/ha [2, 16]: 75 to 84% | pest or weed control at 70 g/ha [2, 17]: 60 to 74% | pest or weed control at 140 g/ha [2, 17]: 85 to 94%

— patent US9113629B2, “4-amino-6-(4-substituted-phenyl)-picolinates and 6-amino-2-(4-substituted-phenyl)-pyrimidine-4-carboxylates and their use as herbicides” (DOW AGROSCIENCES LLC, priority 2013, dated 2015)
